Assay results taken from ChEMBL document CHEMBL1152005, “Design, synthesis and X-ray crystallographic studies of novel FKBP-12 ligands” (Bioorg Med Chem Lett, 1995).

Test: Compound was evaluated for its ability to inhibit the rotamase activity of FKBP-12
Conditions: read-out: Ki app; call rule not given here

**Q.** With Cc1ccccc1OC12CCCC(CC(=O)C1)C2 (stereo not given) as the molecule, how does the Ki read?
**A.** Its Ki is 120 µM.

**Q.** Which Ki does the source give for O=C1CC2CCCC(S(=O)(=O)c3ccccc3)(C1)C2 (stereo not given) here?
**A.** The Ki was 48.5 µM.

**Q.** With COc1cccc(OC23CCCC(CC(=O)C2)C3)c1 (stereo not given) as the molecule, how does the Ki read?
**A.** Its Ki is 92.1 µM.

**Q.** For O=C1CC2CCCC(OCc3ccccc3)(C1)C2 (stereo not given), which Ki is on record?
**A.** The Ki was 85.8 µM.

**Q.** For CN(c1ccccc1)C12CCCC(CC(=O)C1)C2 (stereo not given), which Ki is on record?
**A.** Its Ki is 165 µM.

**Q.** Which Ki does the source give for O=C1CC2CCCC(Oc3cccc(O)c3)(C1)C2 (stereo not given) here?
**A.** Its Ki is 16.7 µM.

**Q.** For Cc1cccc(C)c1OC12CCCC(CC(=O)C1)C2 (stereo not given), which Ki is on record?
**A.** The Ki was 461 µM.

**Q.** For O=C1CC2CCCC(Sc3ccccc3)(C1)C2 (stereo not given), which Ki is on record?
**A.** Its Ki is 9.2 µM.

**Q.** With O=C1CC2CCCC(Oc3ccccc3)(C1)C2 (stereo not given) as the molecule, how does the Ki read?
**A.** Its Ki is 116 µM.

Test: Compound was evaluated for its ability to inhibit the rotamase activity of FKBP-12; no inhibition
Conditions: not given

**Q.** With O=C1CC2CCCC(O)(C1)C2 (stereo not given) as the molecule, how does the Ki app read?
**A.** Its Ki app is “Not Active”.
